Source: ChEMBL document CHEMBL1127985, “Synthesis and biological evaluation of new LTA4 analogs” (Bioorg Med Chem Lett, 1994)

What was measured:
[1] = organism: Cavia porcellus; assay: Compound was tested for inhibition of LTD4 induced contraction of guinea pig ileum; type: functional
[2] = organism: Cavia porcellus; assay: Compound was tested for inhibition of LTD4 induced contraction of guinea pig ileum at a concentration 5E-5 M; NS means No significant effect; type: functional

Row | SMILES | IC50 [1] [µM] | IC50 [2]
1 | CCCCC/C=C\C\C=C/C=C/C=C/C1CC(CCC(=O)OC)=NO1 (stereo not given) | 95 | 
2 | CCCCC/C=C\C\C=C/C=C/C=C/c1cc(CCC(=O)OC)no1 |  | Not Active
3 | CCCCCCCCCC/C=C/C=C/c1cc(CCC(=O)OC)no1 |  | Not Active

The remaining lines, values ahead:

Row | IC50 [1] [µM] | IC50 [2] | SMILES
4 | 56 |  | CCCCC/C=C\C\C=C/C=C/C=C/c1conc1CCCC(=O)OC
5 | 60 |  | CCCCC/C=C\C\C=C/C=C/C=C/c1conc1CCC(=O)OC
